In ChEMBL document CHEMBL1135433 (J Med Chem, 2002):

Assay: Concentration required for 50% inhibition of Shiga-like toxin type 1 (Stx1A1)

Row | SMILES | IC50
1 | Nc1nc(O)c2nc(CNc3ccc(C(=O)O)cc3)cnc2n1 [PTEROIC ACID] | 0.6 mM
2 | Nc1nc2c(c(=O)[nH]1)CC=N2 | 2 mM
3 | Cc1nc2c(=O)[nH]c(N)nc2o1 | 1 mM
4 | Cc1cc2c(O)[nH]c(N)nc-2n1 | 4.3 mM
